Key:
[1] = molecular target: T1, CPTP (GLTPD1) (Homo sapiens, UniProt Q5TA50); assay: FRET lipid transfer between POPC vesicles; format: biochemical; conditions: 37 °C; labelled compound
T1 sequence (Q5TA50 1-214): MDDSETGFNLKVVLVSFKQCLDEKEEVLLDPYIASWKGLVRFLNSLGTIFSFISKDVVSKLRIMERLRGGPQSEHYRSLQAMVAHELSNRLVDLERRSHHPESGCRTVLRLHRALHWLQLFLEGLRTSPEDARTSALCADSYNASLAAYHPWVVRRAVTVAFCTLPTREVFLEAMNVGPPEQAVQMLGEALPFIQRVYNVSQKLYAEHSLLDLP

[2] = molecular target: T1, CPTP (GLTPD1); assay: X-ray crystal structure; format: binding; conditions: sphingosine-in mode site as C1P

transfer rate [1]	X-ray crystal structure [2]	SMILES
~ 4 C1P molecules/min/protein		CCCCCCCCCCCCC/C=C/[C@@H](O)[C@H](COP(=O)(O)O)NC(=O)CCCCCCCCC/C=C/c1c2ccccc2cc2ccccc12 [AV-C1P, anthrylvinyl-C1P]
	PA occupies the same binding site	CCCCCCCCCCCC(=O)OC[C@H](COP(=O)(O)O)OC(=O)CCCCCCCCCCC [di12:0-PA]

Source: paper PMC3951269 (Nature, 2013)
